Test results as given in US6399777B2, “Inclusion complexes of aryl-heterocyclic salts” (Pfizer Inc., priority 1996, dated 2002).
Structures can show the parent of a compound that is named as a salt.

Columns and labels:
[1] = Solubility of ziprasidone salts in water; conditions: weight of ziprasidone calculated as the free base
[2] = Equilibrium solubility of ziprasidone salts in 40% (w/v) aqueous HPBCD, HPLC; assay type: physicochemical; conditions: 40% (w/v) HPBCD in water, stirred four days at ambient temperature; calculated as free base
Text: Many different experimental protocols can be envisioned and implemented. […] HPBCD was purchased commercially from Wacker Chemie.

[3] = Equilibrium solubility of ziprasidone salts in 40% (w/v) aqueous SBECD, HPLC; conditions: in 40% SBECD; from Table 1
Method: The following protocol illustrates the protocol employed for the instant invention using 40% aqueous cyclodextrin. The same protocol was employed for other aqueous cyclodextrin concentrations such as those used to generate FIG. 1.
A 40% (w/v) solution of cyclodextrin (SBECD or HPBCD) in water was prepared by adding 200 g of cyclodextrin to a 500 ml beaker containing approximately 250 ml of deionized water and a magnetic stir bar. The contents were stirred until dissolution of the cyclodextrin in the water was complete, usually a time of about one hour being sufficient. The solution was then transferred to a 500 ml volumetric flask and deionized water was added to the mark. 5 ml of the volumetric solution was pipetted into a 10 ml glass vial with a screw cap. […] The vial contents were stirred for four days at ambient temperature to allow a sufficient time for equilibrium to be established. […] The contents were filtered into a clean screw cap vial through a Millex-GS 0.2 μm filter and the drug concentration determined by an HPLC method.
Detection can be by UV absorption at a wavelength of 229 nm. Quantification can be effected facilely by comparison of HPLC peak height (or area) with the peak height (or area) taken from a standard plot of concentration vs. peak height (or area) for standards of known concentration. […]

Row | Compound | Solubility in water [1] [μgA/ml] | Solubility in 40% HPBCD [2] [μgA/ml] | Comparison of solubility among the salt candidates and cyclodextrin solutions tested [3]
1 | O=C1Cc2cc(CCN3CCN(c4nsc5ccccc45)CC3)c(Cl)cc2N1 [free base, ziprasidone, reference compound] | 0.3 | – | –
2 | O=C1Cc2cc(CCN3CCN(c4nsc5ccccc45)CC3)c(Cl)cc2N1 [tartrate, Ziprasidone Tartrate] | 180 | 12.4 | –
3 | O=C1Cc2cc(CCN3CCN(c4nsc5ccccc45)CC3)c(Cl)cc2N1 [aspartate, ziprasidone] | – | 1.3 | –
4 | O=C1Cc2cc(CCN3CCN(c4nsc5ccccc45)CC3)c(Cl)cc2N1 [esylate, Ziprasidone Esylate] | – | 13.7 | –
5 | O=C1Cc2cc(CCN3CCN(c4nsc5ccccc45)CC3)c(Cl)cc2N1 [hydrochloride, ziprasidone] | 80 | 2.4 | –
6 | O=C1Cc2cc(CCN3CCN(c4nsc5ccccc45)CC3)c(Cl)cc2N1 [besylate, ziprasidone] | 80 | – | –
7 | O=C1Cc2cc(CCN3CCN(c4nsc5ccccc45)CC3)c(Cl)cc2N1 [mesylate, Ziprasidone Mesylate] | 1000 | 17.3 | highest solubility
